Test results from patent US10570179B2, “Substituted urea depsipeptide analogs as activators of the CLPP endopeptidase” (priority 2016, dated 2020).
Numbered stars: 1 amine (or outer) side, 2 acyl side, 3 side chain; on linkers, the order of the positions; unused ones are H or OH. Bridge positions count the residues as written; N and C are the ends. Square brackets hold non-standard residues; d marks the D form. Peptide text beside a SMILES is read from it. * marks the point of attachment. ξ: configuration not given here. Phe(3,5-Me2) = Cc1cc(C)cc(C[C@H](N)C(=O)O)c1; Phe(3-Me) = Cc1cccc(C[C@H](N)C(=O)O)c1; NH(4-Cl-2-F-phenyl) = Fc1cc(Cl)ccc1N*; Pro(4R-Me) = C[C@H]1CN[C@H](C(=O)O)C1; Hyp = O=C(O)[C@@H]1C[C@@H](O)CN1; NH(4-Me-phenyl) = Cc1ccc(N*)cc1; ξNMeThr = CNC(C(=O)O)[C@@H](C)O; aThr = C[C@H](O)[C@H](N)C(=O)O; Pip = O=C(O)[C@@H]1CCCCN1; CO = O=C([*:1])[*:2]

How the values were obtained:
Sa-ClpP = target: T1, Sa-ClpP (Staphylococcus aureus, UniProt Q2G036); assay: ADEP displacement fluorescence polarization assay; format: binding, S. aureus; details: displacement of FP probe ADEP 2591 from Sa-ClpP
T1 construct: made in house; host or cells: E. coli BL21 (DE3)
Experimental: A fluorescence polarization (FP) assay was used to determine the activity of the disclosed compounds in displacing an ADEP analogue from ClpP. Briefly, the assay was performed in black 384 well, flat bottom, low volume plates (Greiner Bio-One, Monroe, N.C., catalog #784076). 20 μL of a pre-equilibrated (1 hr, room temperature) master mix (15 μM Sa-ClpP, 2% DMSO (v/v) and 50 nM FP probe in TrisHCl, pH 8.0)) was pipetted into each well using a Well-Mate (Thermo Scientific, Waltham, Mass.). Sa-ClpP was prepared as described above for the ClpP activation assay. The FP probe was ADEP 2591 (structure shown above). The ADEP 2591 comprises a TAMRA fluorophore linked to a core based on modified ADEP 2378 via a short alkyl linker. Using pin transfer, approximately 0.4 μL (2% v/v DMSO) of each compound or control was added per well. After addition of compounds and controls, plates were allowed to incubate for an additional 120 minutes at room temperature. All assays were performed in triplicate. Polarization was monitored using an EnVision Multilabel reader (Perkin-Elmer, Waltham, Mass.) by exciting the FP probe at 530±25 nm, and monitoring fluorescence intensity of both parallel and perpendicular polarized light at 579±25 nm. Readout was in millipolarization units (mP).
Signal gain and G factors were determined in wells containing 200 μM ADEP 2378, which had been previously verified (data not shown) as containing completely unbound ADEP 2591. Data collected was normalized to values obtained from positive (200 μM ADEP 2378) or negative (DMSO) controls. Curves were fit with non-linear regression using the equation “log [inhibitor] vs. Response-variable slope (four parameters)-symmetrical” in the program Prism 6 (GraphPad Software, La Jolla, Calif. USA, www.graphpad.com). The structures for ADEP 2378 and ADEP 2591 are shown above. ADEP 2378 is (E)-N—((S)-1-(((2R,6S,8aS,14aS,20S,23aS)-2,6-dimethyl-5,8,14,19,23-pentaoxooctadecahydro-1H,5H,14H,19H-pyrido[2,1-i]dipyrrolo[2,1-c:2′,1′-1][1]oxa[4,7,10,13]tetraazacyclohexadecin-20-yl)amino)-1-oxo-3-phenylpropan-2-yl)pent-2-enamide. ADEP 2591 is 5-(3-(3-((6S,9S,11aS,17S,20aS)-6,10-dimethyl-5,8,11,16,20-pentaoxo-17-((S)-2-((E)-pent-2-enamido)-3-phenylpropanamido)hexadecahydro-1H,5H,16H-dipyrrolo[2,1-c:2′,1′-1][1]oxa[4,7,10,13]tetraazacyclohexadecin-9-yl)propyl)thioureido)-2-(6-(dimethylamino)-3-(dimethyliminio)-3H-xanthen-9-yl)benzoate.

[1] = Microsomal metabolic stability; format: in vitro ADME, mouse
Experimental: (§1) Compounds were initially prepared by dissolving them into DMSO at a final concentration of 10 mM. NADPH regenerating solutions A and B and mouse liver microsomes (CD-1) were obtained from BD Gentest (Woburn, Mass.). Ninety-six well deep well plates were obtained from MidWest Scientific Inc (Valley Park, Mo.).
(§2) Sample preparation for microsomal stability was modified from methods of Di, L., et al., Int J Pharm. 2005 Jun. 13; 297(1-2):110-9. A set of incubation times of 0, 15, 30, 60, 120, and 240 minutes were used. Mouse liver microsomal solutions were prepared by adding 58 μL of concentrated human or mouse liver microsomes (20 mg/mL protein concentration) to 1.756 mL of 0.1 M potassium phosphate buffer (pH 7.4) and 5 μL of 0.5 M EDTA to make a 0.6381 mg/mL (protein) microsomal solution. NADPH regenerating agent contained 113 μL of NADPH A, 23 μL of NADPH B, and 315 μL of 0.1 M potassium phosphate buffer (pH 7.4). The diluted test compound solutions (2 μL) were each added directly to a 1.79 mL of liver microsomal solution. This solution was mixed and 90 μL was transferred to 6 time points plates (each in triplicate wells). For the time 0 plate, 225 μL of cold acetonitrile with internal standard ([…] warfarin) was added to each well, followed by addition of NADPH regenerating agent (22.5 μL) and no incubation. For other five time points' plate, NADPH regenerating agent (22.5 μL) was added to each well to initiate the reaction. The plates were incubated at 37° C. for the required time, followed by quenching of the reaction by adding 225 μL of cold acetonitrile with internal standard (4 μg/ml warfarin). All of the plates were sealed and mixed well at 600 rpm for 10 minutes followed by centrifugation at 4000 rpm for 20 minutes. The supernatants (120 μL) were transferred to analytical plates for analysis by LCMS. LCMS conditions were described in the materials and instrumentation section above. The metabolic stability is evaluated via the half-life from least-squares fit of the multiple time points based on first-order kinetics.

[2] = Microsomal metabolic stability; format: in vitro ADME, human
Experimental: as §1, §2

[3] = microsomal metabolic stability half-life, mouse liver microsomes
[4] = microsomal metabolic stability half-life, human liver microsomes

T1 sequence (Q2G036 whole entry): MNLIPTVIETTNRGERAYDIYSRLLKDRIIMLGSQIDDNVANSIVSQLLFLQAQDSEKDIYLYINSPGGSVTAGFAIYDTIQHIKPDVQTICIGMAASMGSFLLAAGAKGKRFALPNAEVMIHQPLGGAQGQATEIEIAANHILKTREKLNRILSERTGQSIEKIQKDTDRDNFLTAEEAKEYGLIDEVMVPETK

SMILES	IC50 (Sa-ClpP)	Mouse [1, 3]	Human [2, 4]	Mouse ([1]; CD-1, mouse, pH 7.4)	Human ([2]; human, pH 7.4)
Cc1ccc(NC(=O)N[C@@H](Cc2cccc(C)c2)C(=O)N[C@@H]2C(=O)N3CCC[C@H]3C(=O)N3CCCC[C@H]3C(=O)N[C@@H](C)C(=O)N3C[C@H](C)C[C@H]3C(=O)O[C@H]2C)cc1 [Compound 1, (S)-3-(M-TOLYL)-2-(3-(P-TOLYL)UREIDO)-N-((2R,6S,8AS,14AS,20S,21S,23AS)-2,6,21-TRIMETHYL-5,8,14,19,23-PENTAOXOOCTADECAHYDRO-1H,5H,14H,19H-PYRIDO[2,1-I]DIPYRROLO[2,1-C:2′,1′-L][1]OXA[4,7,10,13]TETRAAZACYCLOHEXADECIN-20-YL)PROPANAMIDE] ({NH(4-Me-phenyl)-CO}-[Phe(3-Me)][aThr]P[Pip]A[Pro(4R-Me)]; ester 2-C)	7.48 ± 0.5 µM	5.22 h	11.45 h	–	–
Cc1ccc(NC(=O)N[C@@H](Cc2cc(C)cc(C)c2)C(=O)N[C@@H]2C(=O)N3CCC[C@H]3C(=O)N3CCCC[C@H]3C(=O)N[C@@H](C)C(=O)N3C[C@H](C)C[C@H]3C(=O)O[C@H]2C)cc1 [Compound 2, (S)-3-(3,5-DIMETHYLPHENYL)-2-(3-(P-TOLYL)UREIDO)-N-((2R,6S,8AS,14AS,20S,21S,23AS)-2,6,21-TRIMETHYL-5,8,14,19,23-PENTAOXOOCTADECAHYDRO-1H,5H,14H,19H-PYRIDO[2,1-I]DIPYRROLO[2,1-C:2′,1′-L][1]OXA[4,7,10,13]TETRAAZACYCLOHEXADECIN-20-YL)PROPANAMIDE] ({NH(4-Me-phenyl)-CO}-[Phe(3,5-Me2)][aThr]P[Pip]A[Pro(4R-Me)]; ester 2-C)	8.82 ± 0.4 µM	2.85 h	0.62 h	–	–
Cc1cccc(C[C@H](NC(=O)Nc2ccc(Cl)cc2F)C(=O)N[C@@H]2C(=O)N3CCC[C@H]3C(=O)N3CCCC[C@H]3C(=O)N[C@@H](C)C(=O)N3C[C@H](C)C[C@H]3C(=O)O[C@H]2C)c1 [Compound 3, (S)-2-(3-(4-CHLORO-2-FLUOROPHENYL)UREIDO)-3-(M-TOLYL)-N-((2R,6S,8AS,14AS,20S,21S,23AS)-2,6,21-TRIMETHYL-5,8,14,19,23-PENTAOXOOCTADECAHYDRO-1H,5H,14H,19H-PYRIDO[2,1-I]DIPYRROLO[2,1-C:2′,1′-L][1]OXA[4,7,10,13]TETRAAZACYCLOHEXADECIN-20-YL)PROPANAMIDE] ({NH(4-Cl-2-F-phenyl)-CO}-[Phe(3-Me)][aThr]P[Pip]A[Pro(4R-Me)]; ester 2-C)	6.61 ± 0.28 µM	–	–	11.65 ± 2.2 h	4.68 ± 0.78 h
Cc1cc(C)cc(C[C@H](NC(=O)Nc2ccc(Cl)cc2F)C(=O)N[C@@H]2C(=O)N3CCC[C@H]3C(=O)N3CCCC[C@H]3C(=O)N[C@@H](C)C(=O)N3C[C@H](C)C[C@H]3C(=O)O[C@H]2C)c1 [Compound 4, (S)-2-(3-(4-CHLORO-2-FLUOROPHENYL)UREIDO)-3-(3,5-DIMETHYLPHENYL)-N-((2R,6S,8AS,14AS,20S,21S,23AS)-2,6,21-TRIMETHYL-5,8,14,19,23-PENTAOXOOCTADECAHYDRO-1H,5H,14H,19H-PYRIDO[2,1-I]DIPYRROLO[2,1-C:2′,1′-L][1]OXA[4,7,10,13]TETRAAZACYCLOHEXADECIN-20-YL)PROPANAMIDE] ({NH(4-Cl-2-F-phenyl)-CO}-[Phe(3,5-Me2)][aThr]P[Pip]A[Pro(4R-Me)]; ester 2-C)	6.45 ± 0.4 µM	–	–	6.99 ± 1.07 h	0.94 ± 0.09 h
Cc1cccc(C[C@H](NC(=O)Nc2ccc(Cl)cc2F)C(=O)N[C@@H]2C(=O)N3CCC[C@H]3C(=O)N(C)C([C@@H](C)O)C(=O)N[C@@H](C)C(=O)N3C[C@H](C)C[C@H]3C(=O)O[C@H]2C)c1 (stereo partly drawn) [Compound 5] ({NH(4-Cl-2-F-phenyl)-CO}-[Phe(3-Me)][aThr]P[ξNMeThr]A[Pro(4R-Me)]; ester 2-C)	4.4 ± 0.4 µM	–	–	1.02 ± 0.2 h	0.31 ± 0.03 h
Cc1cccc(C[C@H](NC(=O)Nc2ccc(Cl)cc2F)C(=O)N[C@@H]2C(=O)N3C[C@H](O)C[C@H]3C(=O)N3CCCC[C@H]3C(=O)N[C@@H](C)C(=O)N3C[C@H](C)C[C@H]3C(=O)O[C@H]2C)c1 [Compound 6, (S)-2-(3-(4-CHLORO-2-FLUOROPHENYL)UREIDO)-N-((2R,6S,8AS,14AS,16R,20S,21S,23AS)-16-HYDROXY-2,6,21-TRIMETHYL-5,8,14,19,23-PENTAOXOOCTADECAHYDRO-1H,5H,14H,19H-PYRIDO[2,1-I]DIPYRROLO[2,1-C:2′,1′-L][1]OXA[4,7,10,13]TETRAAZACYCLOHEXADECIN-20-YL)-3-(M-TOLYL)PROPANAMIDE] ({NH(4-Cl-2-F-phenyl)-CO}-[Phe(3-Me)][aThr][Hyp][Pip]A[Pro(4R-Me)]; ester 2-C)	3 ± 0.2 µM	–	–	4.61 ± 1.2 h	4.83 ± 1.5 h
Cc1cccc(C[C@H](NC(=O)Nc2ccc(Cl)cc2F)C(=O)N[C@H]2COC(=O)[C@@H]3C[C@@H](C)CN3C(=O)[C@H](C)NC(=O)[C@@H]3CCCCN3C(=O)[C@@H]3CCCN3C2=O)c1 [Compound 8, (S)-2-(3-(4-CHLORO-2-FLUOROPHENYL)UREIDO)-N-((2R,6S,8AS,14AS,20S,23AS)-2,6-DIMETHYL-5,8,14,19,23-PENTAOXOOCTADECAHYDRO-1H,5H,14H,19H-PYRIDO[2,1-I]DIPYRROLO[2,1-C:2′,1′-L][1]OXA[4,7,10,13]TETRAAZACYCLOHEXADECIN-20-YL)-3-(M-TOLYL)PROPANAMIDE]	3.51 ± 0.1 µM	–	–	1.22 ± 0.13 h	0.89 ± 0.13 h
Cc1cccc(C[C@H](NC(=O)Nc2ccc(Cl)cc2F)C(=O)N[C@H]2COC(=O)[C@@H]3C[C@@H](C)CN3C(=O)[C@H](C)NC(=O)[C@@H]3CCCCN3C(=O)[C@@H]3C[C@@H](O)CN3C2=O)c1 [Compound 10]	4.65 ± 0.2 µM	–	–	0.7 ± 0.07 h	0.29 ± 0.04 h
Cc1ccc(NC(=O)N[C@@H](Cc2cccc(C)c2)C(=O)N[C@H]2COC(=O)[C@@H]3CCCN3C(=O)[C@H](C)NC(=O)[C@@H]3CCCCN3C(=O)[C@@H]3C[C@@H](O)CN3C2=O)cc1 [Compound 49, (S)—N-((6S,8AS,14AS,16R,20S,23AS)-16-HYDROXY-6-METHYL-5,8,14,19,23-PENTAOXOOCTADECAHYDRO-1H,5H,14H,19H-PYRIDO[2,1-I]DIPYRROLO[2,1-C:2′,1′-L][1]OXA[4,7,10,13]TETRAAZACYCLOHEXADECIN-20-YL)-3-(M-TOLYL)-2-(3-(P-TOLYL)UREIDO)PROPANAMIDE]	–	4.37 ± .373 h	0.81 ± .813 h	–	–
